Data taken from article PMC3805573, “Methylglyoxal Evokes Pain by Stimulating TRPA1” (PLoS ONE, 2013).

How the values were obtained:
MDCK cells = assay: [Ca2+]i-measurements in MDCK cells; type: cell-based, Canine
Experimental: MDCK cells were grown in DMEM (Invitrogen) supplemented with 5% fetal bovine serum, 100 U/ml penicillin and 100 µg/ml streptomycin. […] The experiments were performed in a physiological saline solution containing (in mM) 140 NaCl, 5 KCl, 10 glucose, 10 HEPES, 2 CaCl2, and 1 MgCl2, buffered to pH 7.4 with NaOH. Compounds were applied to cells by local continuous microperfusion of solution through a fine tube placed in close proximity of the cells studied. […] Analyses of emission intensity ratios at 340 nm/380 nm excitation (R, in individual cells) were performed using the ImageMaster suite of software. […] Cells grown in 96 well black walled plates (Costar, Tewksbury, MA) were loaded with Fura 2-AM in the presence of 1 mM probenecid at 37°C for 1–1.5 hours and assays were carried out at 25°C. Basal emission ratios (340 nm/380 nm) were measured and changes in ratio determined at various times after compound addition.

[1] = test system: human TRPA1 C621S, C641S or C665S; assay: [Ca2+]i-responses of human TRPA1 point mutants C621S, C641S, C665S; type: cell-based; details: human TRPA1 single point mutants vs wildtype
Experimental: (§1) Untransfected CHO cells and CHO cells expressing mouse or human TRPA1 were grown in MEM Glutamax or AQ medium supplemented with penicillin (100 U/ml), streptomycin (100 µg/ml), and FCS (10%). Plasmids encoding mutated TRPA1 channels were kindly provided by Dr. Ardem Patapoutian. All media, serum and antibiotics were from Invitrogen (Paisley, UK) or Sigma (Poole, UK).
Cells were loaded with 2 µM Fura-2 AM (Molecular Probes, Paisley, UK) in the presence of 1 mM probenecid for ∼1 hr. The experiments were performed in a physiological saline solution containing (in mM) 140 NaCl, 5 KCl, 10 glucose, 10 HEPES, 2 CaCl2, and 1 MgCl2, buffered to pH 7.4 with NaOH. Compounds were applied to cells by local continuous microperfusion of solution through a fine tube placed in close proximity of the cells studied. Images of a group of cells were captured every 2 sec using 340 and 380 nm excitation wavelengths with emission measured at 520 nm with a microscope based imaging system (PTI, New Jersey). […]
Changes in intracellular calcium ([Ca^2+]i) in response to agonists were determined in TRPA1 expressing CHO cells and MDCK cells using a Flexstation 3 (Molecular Devices). […] Basal emission ratios (340 nm/380 nm) were measured and changes in ratio determined at various times after compound addition.

mTRPA1 K712Q = biological target: T1, mTRPA1 K712Q (Mus musculus, UniProt Q8BLA8, K712Q); assay: [Ca2+]i-responses of mTRPA1 K712Q in CHO cells; type: cell-based
T1 construct: expressed in transfected cells; host or cells: CHO cells
Experimental: as §1
(§2) Cells were loaded with 2 µM Fura-2 AM (Molecular Probes, Paisley, UK) in the presence of 1 mM probenecid for ∼1 hr. The experiments were performed in a physiological saline solution containing (in mM) 140 NaCl, 5 KCl, 10 glucose, 10 HEPES, 2 CaCl2, and 1 MgCl2, buffered to pH 7.4 with NaOH. Compounds were applied to cells by local continuous microperfusion of solution through a fine tube placed in close proximity of the cells studied. Images of a group of cells were captured every 2 sec using 340 and 380 nm excitation wavelengths with emission measured at 520 nm with a microscope based imaging system (PTI, New Jersey). Analyses of emission intensity ratios at 340 nm/380 nm excitation (R, in individual cells) were performed using the ImageMaster suite of software.

TRPA1 = assay: Outward TRPA1 currents in absence of Ca2+, effect of DTT; type: cell-based; details: +60 mV, Ca2+-free
Experimental: DRG neurons and TRPA1 CHO cells were studied under voltage-clamp conditions using an Axopatch 200B amplifier and pClamp 10.0 software (Molecular Devices, Sunnyvale, CA). Except where stated otherwise, whole cell recordings were performed at a holding potential of –60 mV using an extracellular solution with the composition described above for [Ca^2+]i measurements. Borosilicate glass pipettes (2–5 MΩ, 75–80% series resistance compensation) were filled with (in mM) 140 KCl, 1 CaCl2, 2 MgATP, 10 EGTA, and 10 HEPES buffered to pH 7.4 (KOH). Excised inside-out patches were recorded using a Ca^2+-free solution containing (in mM) 140 NaCl, 5 KCl, 1 MgCl2, 10 HEPES and 1 EGTA, pH 7.4 (NaOH) in the pipettes and perfused with 140 KCl, 2 MgATP, 1 EGTA, and 10 HEPES (pH 7.4). DRG neurons were studied using an intracellular solution containing (in mM) 140 CsCl, 1 CaCl2, 2 MgATP, 10 EGTA and 10 HEPES, pH 7.4 (CsOH). Drugs were applied by local microperfusion with a rapid solution changer (RSC-200, Biologic, Claix, France).
It is possible that MG stimulates TRPA1 through formation of reversible hemithioacetals with cysteine residues other than those examined here, [40]. To investigate this possibility we examined the effect of the reducing agent dithiothreitol (DTT, 2 mM) on outward TRPA1 currents recorded in the absence of Ca^2+ (5 mM BAPTA intracellularly, 1 mM EGTA extracellularly) to avoid Ca^2+-mediated inactivation or desensitization. We used DTT to determine whether disulfide bridge formation or reversible noncovalent interactions contribute to the agonist activity of MG. DTT is expected to rapidly reduce cystine bridges to free thiols, but also to form hemithioacetals with MG, thereby accelerating current decay. Covalent modification of arginine and lysine residues by MG and modification of cysteine residues by AITC are on the other hand resistant to DTT [31]. […] This is consistent with the expected oxidative formation of cystine bridges and their reduction by DTT [4]. The contrast between the stable currents produced by H2O2 and the spontaneously reversible currents evoked by MG highlights the reversible nature of the interaction between MG and TRPA1. […] We also observed that repeated applications of MG and H2O2 evoked reproducible current responses of similar amplitudes, whereas an application of AITC prevented subsequent channel activation by AITC challenges (Fig. 4C-E). We conclude that MG acts through a reversible interaction with TRPA1 and that H2O2 relies on DTT sensitive oxidative modification of TRPA1 protein for its activity. […] In contrast, the covalent modification produced by AITC appears irreversible and renders TRPA1 refractory to subsequent activation.

beta cells = assay: [Ca2+]i-responses in pancreatic beta cells; type: cell-based, mice; details: AITC, cells from wildtype or Trpa1-/- mice (data not shown)
Experimental: Mouse islets of Langerhans were isolated from the exocrine pancreas by collagenase digestion (1 mg/ml, type XI, Sigma, Poole, UK). Islets were dissociated by 15 min incubation in trypsin (0.5%, Sigma, Poole, UK) followed by trituration through a flame polished glass Pasteur pipette and the islet cells were seeded on glass cover slips.
as §2

[2] = test system: Trpa1+/+ and Trpa1-/- mice; assay: Glucose tolerance test, blood glucose; type: in vivo
Experimental: The glucose tolerance test was performed in mice (not fasted) treated i.p. with 2 g/kg glucose or vehicle (0.2 ml, 0.9% saline). HC030031 (100 mg/kg) or vehicle (DMSO 10%, Tween 80 5%, 0.9% saline 85%) was administered i.p. 30 min before glucose or vehicle. Glucose concentrations were determined using a Contour blood glucose meter (Bayer Diabetes Care) in blood samples taken from the tail-tip.

mice = assay: Acute GLO-1 inhibition, paw pressure and von Frey tests; type: in vivo; details: 1 h after administration, 50 mg/kg i.p.
Experimental: (§3) Mechanical thresholds were measured using an Analgesymeter (Ugo-Basile, Milan). Mice were kept in their holding cages to acclimatize (10–15 min) to the experimental room. The experimenter then lightly restrained the mouse and applied an increasing pressure stimulus to the dorsal surface of the hind paw using a blunt conical probe. The nociceptive threshold was defined as the force in grams at which the mouse withdrew its paw. In order to avoid tissue injury a 150 g force cut-off value was used.
Tactile allodynia was assessed by measuring withdrawal thresholds to calibrated von Frey filaments (0.008–2 g). Animals were placed in a Perspex chamber with a metal grid floor giving access to the underside of their paws and allowed to acclimatize prior to the start of the experiment. […] Using a modified ‘up-down’ method the lowest force filament producing a positive response was recorded as the threshold.
(§4) Methylglyoxal (250 nmoles in 25 µl saline) was injected subcutaneously into the plantar surface of one of the hind paws using a 50 µl luer-syringe (Hamilton Co.) fitted with a 26-gauge x 3/8 inch intradermal needle. Immediately after injection, mice were placed inside a Perspex chamber and the duration of the pain-related behaviors (licking and biting or flinching and shaking of the injected paw) recorded using a digital stop-watch. […]

[3] = test system: Trpa1+/+ and Trpa1-/- mice; assay: Two week GLO-1 inhibition, nociceptive responses to cold, heat and mechanical stimulation; type: in vivo
Experimental: Data shown are from male and female homozygote Trpa1^− ^/− and Trpa1 ^+/+. The Trpa1-null mice and wild-type littermates were bred from heterozygotic mice provided by Drs. Kelvin Kwan and David Corey (Harvard Medical School, Boston, MA).
as §3
Tactile allodynia was assessed by measuring withdrawal thresholds to calibrated von Frey filaments (0.008–2 g). Animals were placed in a Perspex chamber with a metal grid floor giving access to the underside of their paws and allowed to acclimatize prior to the start of the experiment. Von Frey filaments were applied perpendicular to the mid plantar surface of the hind paw with sufficient force to cause slight bending against the paw and held for a few seconds. This was repeated 5 times at intervals of 1–2 s. A positive response was noted if the paw was sharply withdrawn or there was flinching upon removal of the hair. […] Using a modified ‘up-down’ method the lowest force filament producing a positive response was recorded as the threshold.
Heat and cold sensitivities were assessed by measuring the time for paw withdrawal from a 50°C hotplate or 10°C coldplate (Ugo Basile, Milan) of lightly restrained mice.
as §4

[4] = test system: Trpa1+/+ and Trpa1-/- mice; assay: Intraepidermal nerve fiber density in plantar skin (PGP9.5); type: in vivo; details: 2 weeks treatment, 50 mg/kg every other day, either genotype
Experimental: Formalin fixed plantar skin was embedded in paraffin wax and cut in 8 µm sections and stained with rabbit polyclonal anti-PGP9.5 (1 in 5000, Ultraclone Ltd, UK) after citric acid heat induced epitope retrieval. Staining was visualized using anti-rabbit IgG labeled with Alexa-594. The number of PGP9.5 positive fibers crossing the basal membrane into the epidermis was determined in n = 6 mice for each group on a Zeiss Axioplan 2 microscope. The observer was blinded to the treatment.

T1 sequence (Q8BLA8 whole entry K712Q): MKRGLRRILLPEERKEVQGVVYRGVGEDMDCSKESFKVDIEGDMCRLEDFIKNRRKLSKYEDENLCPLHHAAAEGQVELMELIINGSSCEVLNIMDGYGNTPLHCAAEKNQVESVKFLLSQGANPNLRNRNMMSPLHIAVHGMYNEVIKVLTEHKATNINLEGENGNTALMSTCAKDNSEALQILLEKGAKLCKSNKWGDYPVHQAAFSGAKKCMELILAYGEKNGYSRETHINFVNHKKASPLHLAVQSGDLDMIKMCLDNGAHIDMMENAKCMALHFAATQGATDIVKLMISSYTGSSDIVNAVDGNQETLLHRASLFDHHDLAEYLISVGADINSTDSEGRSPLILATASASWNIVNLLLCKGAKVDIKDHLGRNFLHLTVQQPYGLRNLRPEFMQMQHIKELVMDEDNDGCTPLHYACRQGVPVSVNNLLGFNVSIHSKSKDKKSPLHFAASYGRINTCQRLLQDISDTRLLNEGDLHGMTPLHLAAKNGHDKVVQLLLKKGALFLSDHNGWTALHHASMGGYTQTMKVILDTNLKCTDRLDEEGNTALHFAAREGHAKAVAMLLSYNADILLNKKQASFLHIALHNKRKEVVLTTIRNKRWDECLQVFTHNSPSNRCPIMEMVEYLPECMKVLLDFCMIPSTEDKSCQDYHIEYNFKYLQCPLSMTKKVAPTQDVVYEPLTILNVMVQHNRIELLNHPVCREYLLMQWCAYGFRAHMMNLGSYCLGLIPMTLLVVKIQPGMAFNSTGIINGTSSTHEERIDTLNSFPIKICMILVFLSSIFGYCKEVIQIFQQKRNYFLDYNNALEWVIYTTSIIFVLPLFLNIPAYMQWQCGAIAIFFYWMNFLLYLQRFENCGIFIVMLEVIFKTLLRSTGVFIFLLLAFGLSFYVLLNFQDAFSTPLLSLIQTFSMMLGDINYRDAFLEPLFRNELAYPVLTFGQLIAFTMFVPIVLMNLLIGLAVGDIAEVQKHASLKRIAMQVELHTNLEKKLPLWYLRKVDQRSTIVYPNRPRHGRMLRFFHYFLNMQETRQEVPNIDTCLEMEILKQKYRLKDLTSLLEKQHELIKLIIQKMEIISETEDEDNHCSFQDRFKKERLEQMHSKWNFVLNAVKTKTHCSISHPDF

O=C/C=C/c1ccccc1 [cinnamaldehyde]
[Ca2+]i-influx response (MDCK cells; 1 mM): evoked [Ca^2+]i-influx responses

C=CCN=C=S [AITC]
[Ca2+]i-influx response (MDCK cells; 100 µM): evoked [Ca^2+]i-influx responses
EC50 (MDCK cells; read-out: EC50, [Ca2+]i-responses): 9.1 ± 2 µM
effect of substitutions C621S, C641S, C665S on sensitivity to AITC [1]: very substantially reduced
amplitude of [Ca2+]i-responses in mTRPA1 K712Q compared to WT mTRPA1 (mTRPA1 K712Q; AITC 50 µM): significantly reduced
effect of DTT (2 mM) on agonist-evoked TRPA1 current (TRPA1; AITC 50 µM): resistant to treatment with DTT
outward TRPA1 current after removal of agonist (TRPA1; AITC 50 µM): declined with time after removal of AITC
[Ca2+]i-responses in beta cells (beta cells): failed to elicit [Ca^2+]i-responses

CC(=Cc1ccc(Cl)cc1)C(C)=NO [AP18, 4-(4-chlorophenyl)-3-methylbut-3-en-2-one oxime]
effect on concentration-response curves for AITC and MG (MDCK cells; AP18 10 µM): produced similar rightward shifts

CC(C)c1ccc(NC(=O)Cn2cnc3c2c(=O)n(C)c(=O)n3C)cc1 [HC030031]
blood glucose in mice not challenged with glucose ([2]; 100 mg/kg i.p.): increased the blood glucose
blood glucose following a glucose challenge ([2]; 100 mg/kg i.p. 30 min before glucose 2 g/kg i.p., both Trpa1+/+ and Trpa1-/- mice): dramatically enhanced the increase in blood glucose

CC1=C[C@H]2c3c(O)cc(C)cc3OC(C)(C)[C@@H]2CC1 [Δ^9-tetrahydrocannabiorcol]
amplitude of [Ca2+]i-responses in mTRPA1 K712Q compared to WT mTRPA1 (mTRPA1 K712Q; 20 µM (Fig. 4D)): significantly reduced

NC(CCC(=O)NC(CSCc1ccc(Br)cc1)C(=O)NCC(=O)OC1CCCC1)C(=O)OC1CCCC1 (stereo not drawn) [GLO-1 inhibitor, Sr-p-Bromobenzylglutathione cyclopentyl diester]
sensitivity in the paw pressure test (mice): unaffected
sensitivity in the von Frey filaments test (mice): unaffected
sensitivity to all four test modalities ([3]; Trpa1+/+ mice, after day 4, 7 administrations over 2 weeks, 50 mg/kg i.p.): progressively increased
sensitivity to cold, heat, paw-pressure and von Frey stimulation ([3]; first 4 days of the study, 50 mg/kg i.p. every 2 days): no increased sensitivity in any of the tests
persistence of hypersensitivities ([3]; two weeks after cessation of drug administration): no sign of reversal
IENF density compared to vehicle treated mice [4]: failed to produce a significant reduction

OO [hydrogen peroxide]
[Ca2+]i-influx response (MDCK cells; 20 mM): evoked [Ca^2+]i-influx responses
effect of DTT (2 mM) on agonist-evoked TRPA1 current (TRPA1; H2O2 5 mM): rapidly reduced the current amplitude
outward TRPA1 current after removal of agonist (TRPA1; H2O2 5 mM): remained at a stable amplitude after removal of H2O2
